Results taken from PubChem BioAssay (NCI).
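A five-concentration, 48-hour dose response in 96-well plates underlies each endpoint, interpolated linearly between surrounding concentrations. GI50: concentration for 50% inhibition of growth. Definition used: TGI = concentration required for complete inhibition of growth.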

Assays:
Assay in all cases: NCI tumour cell line growth inhibition, 48 h
ACHN renal = system: ACHN renal
CCRF-CEM leukemia = system: CCRF-CEM leukemia
HCC-2998 colon = system: HCC-2998 colon
HCT-15 colon = system: HCT-15 colon
HL-60(TB) leukemia = system: HL-60(TB) leukemia
HOP-62 NSCLC = system: HOP-62 NSCLC
HOP-92 NSCLC = system: HOP-92 NSCLC
HT29 colon = system: HT29 colon
IGROV1 ovarian = system: IGROV1 ovarian
K-562 leukemia = system: K-562 leukemia
KM12 colon = system: KM12 colon
KM20L2 colon = system: KM20L2 colon
LOX IMVI melanoma = system: LOX IMVI melanoma
M14 melanoma = system: M14 melanoma
MALME-3M melanoma = system: MALME-3M melanoma
MOLT-4 leukemia = system: MOLT-4 leukemia
NCI-H226 lung = system: NCI-H226 lung
NCI-H23 lung = system: NCI-H23 lung
NCI-H460 lung = system: NCI-H460 lung
NCI-H522 lung = system: NCI-H522 lung
OVCAR-3 ovarian = system: OVCAR-3 ovarian
OVCAR-4 ovarian = system: OVCAR-4 ovarian
OVCAR-5 ovarian = system: OVCAR-5 ovarian
OVCAR-8 ovarian = system: OVCAR-8 ovarian
RXF 393 renal = system: RXF 393 renal
SF-268 CNS = system: SF-268 CNS
SF-295 CNS = system: SF-295 CNS
SF-539 CNS = system: SF-539 CNS
SK-MEL-2 melanoma = system: SK-MEL-2 melanoma
SK-MEL-28 melanoma = system: SK-MEL-28 melanoma
SK-MEL-5 melanoma = system: SK-MEL-5 melanoma
SK-OV-3 ovarian = system: SK-OV-3 ovarian
SNB-19 CNS = system: SNB-19 CNS
SNB-75 CNS = system: SNB-75 CNS
SR leukemia = system: SR leukemia
TK-10 renal = system: TK-10 renal
U251 CNS = system: U251 CNS
UACC-257 melanoma = system: UACC-257 melanoma
UACC-62 melanoma = system: UACC-62 melanoma
UO-31 renal = system: UO-31 renal
786-0 renal = system: 786-0 renal
A498 renal = system: A498 renal
A549 NSCLC = system: A549 NSCLC
BT-549 breast = system: BT-549 breast
CAKI-1 renal = system: CAKI-1 renal
COLO 205 colon = system: COLO 205 colon
DU-145 prostate = system: DU-145 prostate
EKVX NSCLC = system: EKVX NSCLC
HCT-116 colon = system: HCT-116 colon
HS 578T breast = system: HS 578T breast
MCF7 breast = system: MCF7 breast
MDA-MB-231 breast = system: MDA-MB-231 breast
MDA-MB-435 = system: MDA-MB-435
MDA-N = system: MDA-N
NCI/ADR-RES ovarian = system: NCI/ADR-RES ovarian
PC-3 prostate = system: PC-3 prostate
RPMI-8226 leukemia = system: RPMI-8226 leukemia
SN12C renal = system: SN12C renal
SW-620 colon = system: SW-620 colon
T-47D breast = system: T-47D breast

O=C(N/N=C/c1cc(Br)cc(Br)c1[O-])c1ccccc1O.O=C(N/N=C/c1cc(Br)cc(Br)c1[O-])c1ccccc1O.[Cu+2]
TGI (ACHN renal): 2.42 µM
GI50 (CCRF-CEM leukemia): 0.446 µM
TGI (CCRF-CEM leukemia): 4.54 µM
TGI (HCC-2998 colon): 1.48 µM
TGI (HCT-15 colon): 1.77 µM
TGI (HL-60(TB) leukemia): 0.359 µM
TGI (HOP-62 NSCLC): 0.845 µM
TGI (HOP-92 NSCLC): 1.28 µM
TGI (HT29 colon): 2.5 µM
TGI (IGROV1 ovarian): 1.06 µM
TGI (K-562 leukemia): 0.213 µM
TGI (KM12 colon): 1.98 µM
TGI (KM20L2 colon): 2.09 µM
TGI (LOX IMVI melanoma): 1.61 µM
TGI (M14 melanoma): 1.05 µM
TGI (MALME-3M melanoma): 1.35 µM
TGI (MOLT-4 leukemia): 2.54 µM
TGI (NCI-H226 lung): 1.98 µM
TGI (NCI-H23 lung): 0.484 µM
TGI (NCI-H460 lung): 13.6 µM
TGI (NCI-H522 lung): 0.59 µM
TGI (OVCAR-3 ovarian): 0.702 µM
TGI (OVCAR-4 ovarian): 0.56 µM
TGI (OVCAR-5 ovarian): 2.03 µM
TGI (OVCAR-8 ovarian): 1.38 µM
TGI (RXF 393 renal): 0.926 µM
TGI (SF-268 CNS): 2.51 µM
TGI (SF-295 CNS): 1.24 µM
TGI (SF-539 CNS): 0.926 µM
TGI (SK-MEL-2 melanoma): 1.93 µM
TGI (SK-MEL-28 melanoma): 2.01 µM
TGI (SK-MEL-5 melanoma): 0.844 µM
TGI (SK-OV-3 ovarian): 1.12 µM
TGI (SNB-19 CNS): 2.28 µM
TGI (SNB-75 CNS): 1.99 µM
TGI (SR leukemia): 1.17 µM
TGI (TK-10 renal): 1.58 µM
TGI (U251 CNS): 1.24 µM
TGI (UACC-257 melanoma): 1.74 µM
TGI (UACC-62 melanoma): 0.551 µM
TGI (UO-31 renal): 1.5 µM

C#C[C@]1(O)CC[C@H]2[C@@H]3CCC4=C/C(=N/OC(=O)c5cccc6c(=O)c7ccccc7[nH]c56)CC[C@@H]4[C@H]3CC[C@@]21C
TGI (786-0 renal): > 100 µM
TGI (A498 renal): > 100 µM
TGI (A549 NSCLC): > 100 µM
TGI (ACHN renal): > 100 µM
TGI (BT-549 breast): > 100 µM
TGI (CAKI-1 renal): > 100 µM
TGI (CCRF-CEM leukemia): 39.1 µM
TGI (COLO 205 colon): 77.1 µM
TGI (DU-145 prostate): > 100 µM
TGI (EKVX NSCLC): > 100 µM
TGI (HCC-2998 colon): > 100 µM
TGI (HCT-116 colon): > 100 µM
TGI (HCT-15 colon): > 100 µM
TGI (HL-60(TB) leukemia): 39.8 µM
TGI (HOP-62 NSCLC): > 100 µM
TGI (HOP-92 NSCLC): > 100 µM
TGI (HS 578T breast): > 100 µM
TGI (HT29 colon): > 100 µM
TGI (IGROV1 ovarian): > 100 µM
TGI (K-562 leukemia): 59 µM
TGI (KM12 colon): > 100 µM
TGI (LOX IMVI melanoma): > 100 µM
TGI (M14 melanoma): > 100 µM
TGI (MALME-3M melanoma): > 100 µM
TGI (MCF7 breast): > 100 µM
TGI (MDA-MB-231 breast): > 100 µM
TGI (MDA-MB-435): > 100 µM
TGI (MDA-N): > 100 µM
TGI (MOLT-4 leukemia): 38.1 µM
TGI (NCI-H226 lung): > 100 µM
TGI (NCI-H23 lung): > 100 µM
TGI (NCI-H460 lung): > 100 µM
TGI (NCI-H522 lung): 84.1 µM
TGI (NCI/ADR-RES ovarian): > 100 µM
TGI (OVCAR-3 ovarian): > 100 µM
TGI (OVCAR-4 ovarian): > 100 µM
TGI (OVCAR-5 ovarian): > 100 µM
TGI (OVCAR-8 ovarian): > 100 µM
TGI (PC-3 prostate): > 100 µM
TGI (RPMI-8226 leukemia): 54 µM
TGI (RXF 393 renal): > 100 µM
TGI (SF-268 CNS): > 100 µM
TGI (SF-295 CNS): > 100 µM
TGI (SF-539 CNS): > 100 µM
TGI (SK-MEL-2 melanoma): > 100 µM
TGI (SK-MEL-28 melanoma): > 100 µM
TGI (SK-MEL-5 melanoma): 45.8 µM
TGI (SK-OV-3 ovarian): > 100 µM
TGI (SN12C renal): > 100 µM
TGI (SNB-19 CNS): > 100 µM
TGI (SNB-75 CNS): > 100 µM
TGI (SR leukemia): 33.2 µM
TGI (SW-620 colon): > 100 µM
TGI (T-47D breast): 91.1 µM
TGI (TK-10 renal): > 100 µM
TGI (U251 CNS): > 100 µM
TGI (UACC-257 melanoma): > 100 µM
TGI (UACC-62 melanoma): > 100 µM
TGI (UO-31 renal): > 100 µM

COc1ccc(NS(=O)(=O)c2ccc(NC(NC(=O)CC(C)C)(C(F)(F)F)C(F)(F)F)cc2)nn1
TGI (786-0 renal): > 100 µM
TGI (A498 renal): > 100 µM
TGI (A549 NSCLC): > 100 µM
TGI (ACHN renal): > 100 µM
TGI (BT-549 breast): > 100 µM
TGI (CAKI-1 renal): > 100 µM
TGI (CCRF-CEM leukemia): > 100 µM
TGI (COLO 205 colon): > 100 µM
TGI (DU-145 prostate): > 100 µM
TGI (EKVX NSCLC): > 100 µM
TGI (HCC-2998 colon): > 100 µM
TGI (HCT-116 colon): > 100 µM
TGI (HCT-15 colon): > 100 µM
TGI (HL-60(TB) leukemia): > 100 µM
TGI (HOP-62 NSCLC): > 100 µM
TGI (HOP-92 NSCLC): > 100 µM
TGI (HS 578T breast): > 100 µM
TGI (HT29 colon): > 100 µM
TGI (IGROV1 ovarian): > 100 µM
TGI (K-562 leukemia): > 100 µM
TGI (KM12 colon): > 100 µM
TGI (LOX IMVI melanoma): > 100 µM
TGI (M14 melanoma): > 100 µM
TGI (MALME-3M melanoma): > 100 µM
TGI (MCF7 breast): > 100 µM
TGI (MDA-MB-231 breast): > 100 µM
TGI (MDA-MB-435): > 100 µM
TGI (MDA-N): > 100 µM
TGI (MOLT-4 leukemia): > 100 µM
TGI (NCI-H226 lung): > 100 µM
TGI (NCI-H23 lung): > 100 µM
TGI (NCI-H460 lung): > 100 µM
TGI (NCI-H522 lung): > 100 µM
TGI (NCI/ADR-RES ovarian): > 100 µM
TGI (OVCAR-3 ovarian): > 100 µM
TGI (OVCAR-4 ovarian): > 100 µM
TGI (OVCAR-5 ovarian): > 100 µM
TGI (OVCAR-8 ovarian): > 100 µM
TGI (PC-3 prostate): > 100 µM
TGI (RPMI-8226 leukemia): > 100 µM
TGI (RXF 393 renal): > 100 µM
TGI (SF-268 CNS): > 100 µM
TGI (SF-295 CNS): > 100 µM
TGI (SF-539 CNS): > 100 µM
TGI (SK-MEL-2 melanoma): > 100 µM
TGI (SK-MEL-28 melanoma): > 100 µM
TGI (SK-MEL-5 melanoma): > 100 µM
TGI (SK-OV-3 ovarian): > 100 µM
TGI (SN12C renal): > 100 µM
TGI (SNB-19 CNS): > 100 µM
TGI (SNB-75 CNS): > 100 µM
TGI (SR leukemia): > 100 µM
TGI (SW-620 colon): > 100 µM
TGI (T-47D breast): > 100 µM
TGI (TK-10 renal): > 100 µM
TGI (U251 CNS): > 100 µM
TGI (UACC-257 melanoma): > 100 µM
TGI (UACC-62 melanoma): > 100 µM
TGI (UO-31 renal): > 100 µM
